Data taken from PubChem BioAssay (NCI).
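All cell lines were grown in 96-well plates and treated with compound for 48 hours. GI50 is the concentration that inhibits growth by half. Definition used: TGI = concentration required for complete inhibition of growth.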

What was measured:
Assay in all cases: inhibition of tumour cell growth, NCI panel, 48 h
KM12 colon = system: KM12 colon
NCI-H460 lung = system: NCI-H460 lung
RXF 393 renal = system: RXF 393 renal
COLO 205 colon = system: COLO 205 colon
SF-295 CNS = system: SF-295 CNS
HCC-2998 colon = system: HCC-2998 colon
U251 CNS = system: U251 CNS
UACC-62 melanoma = system: UACC-62 melanoma
OVCAR-3 ovarian = system: OVCAR-3 ovarian
LOX IMVI melanoma = system: LOX IMVI melanoma

Structure (SMILES)	TGI (KM12 colon) [µM]	TGI (NCI-H460 lung) [µM]	TGI (RXF 393 renal) [µM]	TGI (COLO 205 colon) [µM]	TGI (SF-295 CNS) [µM]	TGI (HCC-2998 colon) [µM]	TGI (U251 CNS) [µM]	TGI (UACC-62 melanoma) [µM]	TGI (OVCAR-3 ovarian) [µM]	TGI (LOX IMVI melanoma) [µM]	GI50 (U251 CNS) [µM]	GI50 (KM12 colon) [µM]	GI50 (NCI-H460 lung) [µM]	GI50 (RXF 393 renal) [µM]	GI50 (COLO 205 colon) [µM]	GI50 (OVCAR-3 ovarian) [µM]	GI50 (LOX IMVI melanoma) [µM]	GI50 (SF-295 CNS) [µM]	GI50 (UACC-62 melanoma) [µM]	GI50 (HCC-2998 colon) [µM]
C=CC1=C(C)C2=NC1=CC1=NC(=CC3=C(C)C4=C(O)[C@H](C(=O)OC)C(=C5NC(=C2)[C@@H](C)[C@@H]5CCC(=O)O)C4=N3)C(CC)=C1C	> 20.5	13.8	9.1	11.8	6.01	4.23	> 41.2	7.99	–	–	–	–	–	–	–	–	–	–	–	–
COc1ccc2c(NCCCCCCNc3c4ccccc4nc4cc(OC)ccc34)c3ccccc3nc2c1	2.03	1.1	0.483	0.189	2.04	0.451	1.47	1.59	1.76	–	–	–	–	–	–	–	–	–	–	–
Cc1c2ccncc2c(C)c2c1[nH]c1ccc(O)c(OCC(F)(F)F)c12	–	10.5	–	22.3	14.8	19.3	10.7	21.6	19	3.27	–	–	–	–	–	–	–	–	–	–
COc1c(O)c(OC)c2oc(-c3ccc(O)cc3)c(OC)c(=O)c2c1O	> 100	> 100	–	> 100	> 100	> 100	> 100	> 100	74.9	> 100	–	–	–	–	–	–	–	–	–	–
C[C@]12C/C(=C/O)C(=O)C(O)=C1CC[C@@H]1C2CC[C@@]2(C)C1CC[C@@H]2O (stereo not given in full)	76.9	48.1	36.3	44.5	72.5	–	–	46.7	44.4	30.9	–	–	–	–	–	–	–	–	–	–
Cc1ccccc1/C=C/C(=O)c1ccccc1	48.6	38.7	–	46.7	–	34.5	30.5	38	31	–	–	–	–	–	–	–	–	–	–	–
Cc1cccc(/C(Br)=C2/OC(=O)c3ccccc32)c1	> 100	> 100	> 100	> 100	> 100	> 100	> 100	> 100	> 100	–	–	–	–	–	–	–	–	–	–	–
C=C1C2Oc3ccccc3C1N(c1ccccc1)O2 (stereo not given)	42.2	55.5	> 100	> 100	62.7	> 100	90	–	> 100	36.2	–	–	–	–	–	–	–	–	–	–
COc1ccccc1NC(=O)/C(=C/c1ccccc1)C(C)=O	> 100	> 100	53.8	–	71	> 100	15	> 100	> 100	> 100	–	–	–	–	–	–	–	–	–	–
CC(C)(C)OC(=O)NC1CCCC1=O (stereo not given)	> 100	> 100	> 100	–	> 100	> 100	> 100	> 100	> 100	> 100	–	–	–	–	–	–	–	–	–	–
Cc1cccc(C)c1N1C(=O)C(=O)C(c2nc3ccccc3s2)C(=Nc2cccc3c(=O)[nH][nH]c(=O)c23)C1=O (stereo not given)	> 100	> 100	–	> 100	> 100	> 100	> 100	> 100	> 100	> 100	–	–	–	–	–	–	–	–	–	–
O=S1CSSC1	55.8	–	35.2	32	65.1	45.8	37.5	25.8	58.9	20	–	–	–	–	–	–	–	–	–	–
C=CCNC(=O)N(CCC)CCCC(NC(C)=O)C(=O)NCc1ccccc1 (stereo not given)	> 100	> 100	> 100	> 100	> 100	–	> 100	> 100	> 100	> 100	–	–	–	–	–	–	–	–	–	–
CC(C)[O-].CC(C)[O-].O=c1cccccc1[O-].O=c1cccccc1[O-].[Ti+4]	69.8	–	–	> 100	> 100	> 100	> 100	> 100	> 100	> 100	28.9	–	–	–	–	–	–	–	–	–
O=C1C2=C(CCC2)Nc2cccc3ncn1c23	> 100	> 100	> 100	> 100	> 100	> 100	> 100	> 100	–	> 100	–	–	–	–	–	–	–	–	–	–
Cc1cc2c(cc1Cl)S/C(=C/C(=O)O)C(Nc1cccc3nsnc13)=NS2(=O)=O	> 65.3	> 65.1	> 68.5	> 61.5	> 71.5	–	> 71.7	> 66.2	> 69.8	> 70.1	35.6	50.6	> 39.8	> 52.7	> 48.3	47.5	53.4	> 56.9	43	–
CC1=NN(C(=O)c2ccncc2)C(=O)C1N=Nc1ccc(F)cc1 (stereo not given)	–	> 100	> 100	> 100	> 100	–	–	> 100	> 100	> 100	–	–	–	–	–	–	–	–	–	–
CCCCCCCCCCCCCC[n+]1cccc(C(N)=O)c1	–	10.9	–	2.72	4.23	–	2.11	3.48	5.02	–	0.652	–	3.09	–	1.29	1.93	–	1.69	1.15	2.2
Cc1cccc(N=Nc2ccc(N=Nc3c(O)ccc4ccccc34)cc2C)c1	> 100	> 100	> 100	> 100	> 100	> 100	> 100	> 100	> 100	–	–	–	–	–	–	–	–	–	–	–
N.N.N.N.N.O=S(=O)([O-])S(=O)(=O)[O-].[Co+3]	> 100	> 100	–	> 100	> 100	–	> 100	> 100	> 100	> 100	> 100	> 100	> 100	–	> 100	> 100	> 100	> 100	> 100	–
c1ccc(-c2nc(N3CCCNCC3)c3nc(-c4ccccc4)oc3n2)cc1	3.38	3.54	3.29	3.38	3.25	3.02	3.31	3.34	3.21	–	1.74	1.83	1.86	1.66	1.6	1.75	–	1.81	1.81	1.53
O=C1c2ccccc2-c2c1c1ccccc1c(=O)n2CCNCCn1c2c(c3ccccc3c1=O)C(=O)c1ccccc1-2	> 25	> 25	> 25	> 25	> 25	–	> 25	> 25	> 25	> 25	> 25	> 25	> 25	> 25	2.2	> 25	> 25	> 25	> 25	–
CCOC(=O)N1CCN(CCCCCOc2ccccc2C2CCCCC2)CC1	23.1	17.7	–	7.14	13.9	–	19	19.7	24.1	12.5	5.05	7.67	5	–	2.32	8.29	2.85	2.65	4.86	–
Cc1ccc2oc(=O)c(-c3ccccc3)nc2c1	50.4	> 100	–	71.1	> 100	41.9	–	–	> 100	62.9	–	–	–	–	–	–	–	–	–	–
Cc1cccc(C)c1N1C(=O)C(=O)C(c2nc3ccccc3s2)/C(=N/NC(=O)NN)C1=O (stereo not given)	> 100	> 100	> 100	> 100	> 100	> 100	> 100	> 100	> 100	–	–	–	–	–	–	–	–	–	–	–
CN(C)C(=S)Nc1nnc(Nc2ccccc2)s1	–	> 100	> 100	> 100	–	> 100	> 100	–	> 100	> 100	–	–	–	–	–	–	–	–	–	–
O=C1CNS(=O)(=O)N1	> 100	–	–	> 100	> 100	> 100	–	> 100	> 100	–	–	–	–	–	–	–	–	–	–	–
O=C1c2ccccc2-c2c1c1c(NCCCO)nc3ccccc3c1n2Cc1ccccc1	> 100	38.1	86.6	> 100	45.3	–	44.9	36.5	45.9	30.9	20.8	31.3	17.5	32.5	34.2	19.8	15.9	22.3	18.7	–
CN1c2ccccc2SC2C(c3ccccc3)=NOC21 (stereo not given)	> 100	> 100	> 100	> 100	> 100	> 100	> 100	> 100	> 100	–	–	–	–	–	–	–	–	–	–	–
Cc1ccc(C)c(N2C(=O)C(=O)C(c3nc4ccccc4s3)C(=Nc3cccc4c(=O)[nH][nH]c(=O)c34)C2=O)c1 (stereo not given)	> 100	> 100	–	> 100	> 100	> 100	> 100	> 100	> 100	> 100	–	–	–	–	–	–	–	–	–	–
